Reference: patent US8541460B2, “PDK-1/Akt signaling inhibitors” (The Ohio State University, priority 2003, dated 2013)

Key:
HCT-15 = test: NCI DTP cell line screen (SRB), Colon Cancer; format: cell-based
NCI-H522 = test: NCI DTP cell line screen (SRB), Non-Small Cell Lung Cancer; format: cell-based, human
Protocol: (§1) Screening of compounds 70 and 71 against several cancer cell lines The human tumor cell lines of the cancer screening panel are grown in RPMI 1640 medium containing 5% fetal bovine serum and 2 mM L-glutamine. For a typical screening experiment, cells are inoculated into 96 well microtiter plates in 100 μL at plating densities ranging from 5,000 to 40,000 cells/well depending on the doubling time of individual cell lines. After cell inoculation, the microtiter plates are incubated at 37° C., 5% CO2, 95% air and 100% relative humidity for 24 h prior to addition of experimental drugs.
(§2) After 24 h, two plates of each cell line are fixed in situ with TCA, to represent a measurement of the cell population for each cell line at the time of drug addition (Tz). Experimental drugs are solubilized in dimethyl sulfoxide at 400-fold the desired final maximum test concentration and stored frozen prior to use. At the time of drug addition, an aliquot of frozen concentrate is thawed and diluted to twice the desired final maximum test concentration with complete medium containing 50 μg/ml gentamicin. Additional four, 10-fold or ½ log serial dilutions are made to provide a total of five drug concentrations plus control. Aliquots of 100 μl of these different drug dilutions are added to the appropriate microtiter wells already containing 100 μl of medium, resulting in the required final drug concentrations.
(§3) Following drug addition, the plates are incubated for an additional 48 h at 37° C., 5% CO2, 95% air, and 100% relative humidity. For adherent cells, the assay is terminated by the addition of cold TCA. Cells are fixed in situ by the gentle addition of 50 μl of cold 50% (w/v) TCA (final concentration, 10% TCA) and incubated for 60 minutes at 4° C. The supernatant is discarded, and the plates are washed five times with tap water and air dried. Sulforhodamine B (SRB) solution (100 μl) at 0.4% (w/v) in 1% acetic acid is added to each well, and plates are incubated for 10 minutes at room temperature. After staining, unbound dye is removed by washing five times with 1% acetic acid and the plates are air dried. Bound stain is subsequently solubilized with 10 mM trizma base, and the absorbance is read on an automated plate reader at a wavelength of 515 nm. For suspension cells, the methodology is the same except that the assay is terminated by fixing settled cells at the bottom of the wells by gently adding 50 μl of 80% TCA (final concentration, 16% TCA). Using the seven absorbance measurements [time zero, (Tz), control growth, (C), and test growth in the presence of drug at the five concentration levels (Ti)], the percentage growth is calculated at each of the drug concentrations levels. Percentage growth inhibition is calculated as: [(Ti−Tz)/(C−Tz)]×100 for concentrations for which Ti>/=Tz [(Ti−Tz)/Tz]×100 for concentrations for which Ti<Tz
(§4) Three dose response parameters are calculated for each experimental agent. […] The drug concentration resulting in total growth inhibition (TGI) is calculated from Ti=Tz. […] Values are calculated for each of these three parameters if the level of activity is reached; however, if the effect is not reached or is exceeded, the value for that parameter is expressed as greater or less than the maximum or minimum concentration tested.
(§5) The methods described were used to test compounds 70 and 71 on a panel of sixty cell lines under a screening service provided by the Developmental Therapeutics Program at the National Institutes of Health. Shown in FIG. 1C are 1, RPMI-8226 leukemia cells; 2; NCI-H322M non-small cell lung cancer cells; 3, HT29 colon cancer cells; 4, U251 CNS cancer cells; 5, SK-MEL-28 melanoma cancer cells; 6, SK-OV-3 ovarian cancer cells; 7, RXF 393 renal cancer cells; 8, PC-3 prostate cancer cells; 9, MDA-MB-231 breast cancer cells.

EKVX = test: as above; format: cell-based
Protocol: as §1, §2, §3, §4, §5

NCI-H460 = test: as above; format: cell-based
Protocol: as §1, §2, §3, §4, §5

OVCAR-5 = test: NCI DTP cell line screen (SRB), Ovarian Cancer; format: cell-based
Protocol: as §1, §2, §3, §4, §5

OVCAR-3 = test: NCI DTP cell line screen (SRB), Ovarian Cancer; format: cell-based
Protocol: as §1, §2, §3, §4, §5

IGROV1 = test: NCI DTP cell line screen (SRB), Ovarian Cancer; format: cell-based
Protocol: as §1, §2, §3, §4, §5

OVCAR-4 = test: NCI DTP cell line screen (SRB), Ovarian Cancer; format: cell-based
Protocol: as §1, §2, §3, §4, §5

[1] = system: sixty human tumor cell lines; test: NCI DTP screen, means over sixty human tumor cell lines; format: cell-based; conditions: two-day treatment
Protocol: as §1, §2
Following drug addition, the plates are incubated for an additional 48 h at 37° C., 5% CO2, 95% air, and 100% relative humidity. For adherent cells, the assay is terminated by the addition of cold TCA. Cells are fixed in situ by the gentle addition of 50 μl of cold 50% (w/v) TCA (final concentration, 10% TCA) and incubated for 60 minutes at 4° C. […] Bound stain is subsequently solubilized with 10 mM trizma base, and the absorbance is read on an automated plate reader at a wavelength of 515 nm. […] Using the seven absorbance measurements [time zero, (Tz), control growth, (C), and test growth in the presence of drug at the five concentration levels (Ti)], the percentage growth is calculated at each of the drug concentrations levels. Percentage growth inhibition is calculated as: [(Ti−Tz)/(C−Tz)]×100 for concentrations for which Ti>/=Tz [(Ti−Tz)/Tz]×100 for concentrations for which Ti<Tz
Three dose response parameters are calculated for each experimental agent. […] The drug concentration resulting in total growth inhibition (TGI) is calculated from Ti=Tz. […] Values are calculated for each of these three parameters if the level of activity is reached; however, if the effect is not reached or is exceeded, the value for that parameter is expressed as greater or less than the maximum or minimum concentration tested. […]

NCC(=O)Nc1ccc(-n2nc(C(F)(F)F)cc2-c2ccc3c(ccc4ccccc43)c2)cc1 [Compound 70, 2-Amino-N-{4-[5-(2-phenanthrenyl)-3-(trifluoromethyl)-1H-pyrazol-1-yl]-phenyl}-acetamide]
TGI (HCT-15): 3.19E−06 | Percent Growth (HCT-15; Log10 Concentration −5.0): −47% | Percent Growth (HCT-15; Log10 Concentration −6.0): 47% | Percent Growth (HCT-15; Log10 Concentration −7.0): 54% | Percent Growth (HCT-15; Log10 Concentration −8.0): 81% | Percent Growth (NCI-H522; Log10 Concentration −4.0): −37% | Percent Growth (NCI-H522; Log10 Concentration −5.0): −66% | Percent Growth (NCI-H522; Log10 Concentration −6.0): 97% | Percent Growth (NCI-H522; Log10 Concentration −7.0): 122% | Percent Growth (NCI-H522; Log10 Concentration −8.0): 110% | TGI (NCI-H522; in M (unit assumed)): 3.94E−06 | TGI (EKVX): 3.25E−06 | CC50 (EKVX; Homo sapiens, read-out: LC50): 7.08 µM | Percent Growth (EKVX; Log10 Concentration −4.0): −65% | Percent Growth (EKVX; Log10 Concentration −5.0): −72% | Percent Growth (EKVX; Log10 Concentration −6.0): 75% | Percent Growth (EKVX; Log10 Concentration −7.0): 100% | Percent Growth (EKVX; Log10 Concentration −8.0): 110% | TGI (NCI-H460): 2.64E−06 | Percent Growth (NCI-H460; Log10 Concentration −4.0): −33% | Percent Growth (NCI-H460; Log10 Concentration −5.0): −46% | Percent Growth (NCI-H460; Log10 Concentration −6.0): 34% | Percent Growth (NCI-H460; Log10 Concentration −7.0): 77% | Percent Growth (NCI-H460; Log10 Concentration −8.0): 97% | TGI (OVCAR-5): 3.32E−06 | Percent Growth (OVCAR-5; Log10 Concentration −4.0): −71% | Percent Growth (OVCAR-5; Log10 Concentration −5.0): −83% | Percent Growth (OVCAR-5; Log10 Concentration −6.0): 90% | Percent Growth (OVCAR-5; Log10 Concentration −7.0): 103% | Percent Growth (OVCAR-5; Log10 Concentration −8.0): 97% | TGI (OVCAR-3): 3.32E−06 | Percent Growth (OVCAR-3; Log10 Concentration −4.0): −35% | Percent Growth (OVCAR-3; Log10 Concentration −5.0): −70% | Percent Growth (OVCAR-3; Log10 Concentration −6.0): 76% | Percent Growth (OVCAR-3; Log10 Concentration −7.0): 83% | Percent Growth (OVCAR-3; Log10 Concentration −8.0): 89% | TGI (IGROV1): 3.97E−06 | Percent Growth (IGROV1; Log10 Concentration −4.0): −35% | Percent Growth (IGROV1; Log10 Concentration −5.0): −49% | Percent Growth (IGROV1; Log10 Concentration −6.0): 74% | Percent Growth (IGROV1; Log10 Concentration −7.0): 107% | Percent Growth (IGROV1; Log10 Concentration −8.0): 97% | TGI (OVCAR-4): 3.41E−06 | Percent Growth (OVCAR-4; Log10 Concentration −4.0): −68% | Percent Growth (OVCAR-4; Log10 Concentration −5.0): −82% | Percent Growth (OVCAR-4; Log10 Concentration −6.0): 94% | Percent Growth (OVCAR-4; Log10 Concentration −7.0): 92% | Percent Growth (OVCAR-4; Log10 Concentration −8.0): 99% | mean TGI among the sixty cell lines [1]: 3.2 µM
